Experimental data: US12583851B2, “Heteroaryl-substituted pyrazine derivatives as pesticides” (Elanco Animal Health GmbH, priority 2019, dated 2026)

Assays:
Type in all cases: in vivo
[1] = system: adult mosquitoes Anopheles funestus strain FUMOZ-R; test: Anopheles funestus test (ANPHFU surface treatment & contact assay); conditions: surface concentration 20 mg/m^2, 30 minutes exposure, 24 hours after contact, read-out: mortality (efficacy)
Experimental: Anopheles funestus Test (ANPHFU Surface Treatment & Contact Assay)
(§1) Solvent: Aceton+2000 ppm rapeseed oil methyl ester (RME)
(§2) In order to produce a sufficient, active ingredient containing solution it is necessary to solve the test compound in the solvent-mix (acetone at 2 mg/ml/RME 2000 ppm). This solution is pipetted onto a glazed tile and after evaporation of the acetone, adult mosquitoes of the species Anopheles funestus strain FUMOZ-R (Hunt et al., Med. Vet. Entomol. 2005 Sep. 19(3): 271-275) are placed onto the dried surface. The exposure time is 30 minutes.
(§3) Mortality in percent (%) is determined 24 hours after contact of the insects to the treated surface. 100% mortality means that all tested insects are dead, whereas 0% means that no insect died.

[2] = system: adult flies Musca domestica strain WHO-N; test: Musca domestica test (MUSCDO surface treatment & contact assay); conditions: 24 hours after contact, read-out: mortality (efficacy); for mortality at 20 mg/m2: surface concentration 20 mg/m^2, 30 minutes exposure
Experimental: Musca domestica Test (MUSCDO Surface Treatment & Contact Assay)
as §1
as §2, with “flies” for “mosquitoes”, “Musca domestica” for “Anopheles funestus”, “WHO-N” for “FUMOZ-R (Hunt et al., Med. Vet. Entomol. 2005 Sep. 19(3): 271-275)”
as §3

[3] = system: adult mosquitoes Aedes aegypti strain MONHEIM; test: Aedes aegypti test (AEDSAE surface treatment & contact assay); conditions: 24 hours after contact, read-out: mortality (efficacy); for mortality at 4 mg/m2: surface concentration 4 mg/m^2, 30 minutes exposure; for mortality at 20 mg/m2: surface concentration 20 mg/m^2, 30 minutes exposure
Experimental: Aedes aegypti Test (AEDSAE Surface Treatment & Contact Assay)
as §1
as §2, with “Aedes aegypti” for “Anopheles funestus”, “MONHEIM” for “FUMOZ-R (Hunt et al., Med. Vet. Entomol. 2005 Sep. 19(3): 271-275)”
as §3

[4] = system: Rhipicephalus (Boophilus) microplus larvae (strain Parkhurst, resistant against synthetic pyrethroids); test: Rhipicephalus (Boophilus) microplus in-vitro contact test, larval cattle tick; conditions: after 48 hours, read-out: efficacy (larvae dead or moribund); for pest or weed control at 1 µg/cm2, 100 g/ha: 1 μg/cm^2 (=100 g/ha); for pest or weed control at 5 µg/cm2, 500 g/ha: 5 μg/cm^2 (=500 g/ha)
Outline: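 Acetone solutions were coated onto glass tube walls (900 ppm gives 5 μg/cm²); after drying, 20–50 pyrethroid-resistant Parkhurst larvae added and held at 27 °C, 85% RH. At 48 h, efficacy as % larvae dead or moribund, judged by loss of negative geotaxis.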

[5] = system: green peach aphid (Myzus persicae); test: Myzus persicae oral test; conditions: 120 h, 0.8 ppm, after 5 days
Experimental: Solvent: 100 parts by weight acetone
To produce a suitable preparation of active compound, 1 part by weight of active compound is mixed with the stated amount of solvent, and the concentrate is diluted with water to the desired concentration.
50 μL compound solution is filled in microtiter plates and 150 μL IPL41 insect medium (33%+15% sugar) is added to obtain a total volume of 200 μL per well. Afterwards the plates are sealed with parafilm through which a mixed population of the green peach aphid (Myzus persicae) can suck on the compound preparation.
After 5 days mortality in % is determined. 100% means all aphids have been killed and 0% means none of the aphids have been killed.

[6] = system: adult unfed cat fleas (Ctenocephalides felis); test: Ctenocephalides felis oral test; conditions: 48 h, 100 ppm in citrated cattle blood, after 2 days
Outline: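 About 20 adult unfed cat fleas fed through parafilm on citrated cattle blood containing compound (from a DMSO concentrate). Blood held at 37° C, fleas at room temperature. Mortality in % scored after 2 days.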

[7] = system: adult engorged female ticks (Rhipicephalus microplus); test: Rhipicephalus (Boophilus) microplus injection test; conditions: 168 h, 4 μg/animal, egg deposition after 7 days, read-out: efficacy (infertile eggs)
Outline: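 Efficacy is scored from egg fertility, with 100% meaning every egg infertile and 0% every egg fertile. Five engorged females per test received 1 μL DMSO solution abdominally. Eggs of unclear fertility were kept until hatching, about 42 days.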

[8] = system: fall armyworm larvae (Spodoptera frugiperda); test: Spodoptera frugiperda spray test; conditions: 168 h, maize leaf sections, after 7 days
Outline: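 Compound dissolved in acetone/dimethylformamide, diluted in water containing 1000 ppm alkylarylpolyglycol ether emulsifier and sprayed onto maize leaf sections. Dried sections were infested with larvae; % mortality scored after 7 days (100% = all caterpillars killed, 0% = none).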

[9] = system: green peach aphid (Myzus persicae); test: Myzus persicae spray test; conditions: foliar, 120 h, Chinese cabbage leaf disks, after 5 days
Outline: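 Chinese cabbage leaf disks carrying all instars of M. persicae sprayed with compound in acetone/DMF, diluted in water with 1000 ppm alkylarylpolyglycol ether emulsifier. Percent mortality scored after 5 days (100% = all aphids killed).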

Row | SMILES | mortality at 20 mg/m2 [1] | mortality at 4 mg/m2 ([2]; surface concentration 4 mg/m^2, 30 minutes exposure) | mortality at 20 mg/m2 [2] | mortality at 4 mg/m2 [3] | mortality at 20 mg/m2 [3] | pest or weed control at 1 µg/cm2, 100 g/ha [4] | pest or weed control at 5 µg/cm2, 500 g/ha [4] | mortality at 0.8 ppm [5] | mortality at 100 ppm [6] | pest or weed control at 0.004 mg [7] | mortality at 100 g/ha [8] | mortality at 100 g/ha [9]
1 | CC(NC(=O)c1cc(C(F)(F)F)cc(C(F)(F)F)c1)c1nccnc1-c1ncccn1 (racemic) [Example I-8, (rac)-N-(1-(3-(Pyrimidin-2-yl)pyrazin-2-yl)ethyl)-3,5-bis(trifluoromethyl)benzamide] | 80 to 100% | 80 to 100% | 80 to 100% | 80 to 100% | 80 to 100% | 100% | 100% | 100% | 100% | 100% | 100% | 100%
2 | CC(NC(=O)c1cc(Cl)cc(C(F)(F)F)c1)c1nccnc1-c1ncccn1 (racemic) [Example I-10, (rac)-3-Chloro-N-(1-(3-(pyrimidin-2-yl)pyrazin-2-yl)ethyl)-5-(trifluoromethyl)benzamide] | 80 to 100% | – | 80 to 100% | 80 to 100% | 80 to 100% | 90% | 80% | 90% | 100% | 100% | 100% | 100%
